The target of data set [1] is T1, Arginase-2, mitochondrial (Homo sapiens, UniProt P78540).
T1 sequence (P78540 whole entry): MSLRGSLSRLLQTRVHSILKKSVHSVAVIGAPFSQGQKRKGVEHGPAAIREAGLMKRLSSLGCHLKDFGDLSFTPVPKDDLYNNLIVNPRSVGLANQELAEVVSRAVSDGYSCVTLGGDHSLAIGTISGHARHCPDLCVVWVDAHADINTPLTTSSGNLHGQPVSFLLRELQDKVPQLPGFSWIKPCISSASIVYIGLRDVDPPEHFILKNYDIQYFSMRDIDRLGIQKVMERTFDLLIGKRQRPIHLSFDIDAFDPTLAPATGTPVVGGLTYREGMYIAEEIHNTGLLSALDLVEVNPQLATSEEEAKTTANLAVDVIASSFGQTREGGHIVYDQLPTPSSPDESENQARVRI
Briefly: Inhibition of human arginase-2 assessed as L-arginine conversion to L-ornithine measured as urea level after 1 hr by colorimetric assay.

The target in the next data set is T2, Arginase-1 (Homo sapiens, UniProt P05089).
T2 sequence (P05089 whole entry): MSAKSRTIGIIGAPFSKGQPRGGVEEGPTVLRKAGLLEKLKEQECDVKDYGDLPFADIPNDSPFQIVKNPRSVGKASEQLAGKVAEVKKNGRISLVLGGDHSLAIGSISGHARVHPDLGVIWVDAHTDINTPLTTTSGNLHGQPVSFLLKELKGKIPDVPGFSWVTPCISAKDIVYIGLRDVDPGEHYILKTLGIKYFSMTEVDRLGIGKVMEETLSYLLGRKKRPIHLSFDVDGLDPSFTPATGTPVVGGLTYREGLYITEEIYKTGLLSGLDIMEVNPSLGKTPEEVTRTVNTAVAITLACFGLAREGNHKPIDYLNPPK
Briefly: Inhibition of human arginase-1 assessed as L-arginine conversion to L-ornithine measured as urea level after 1 hr by colorimetric assay.

The nature of data set [2]: Octanol-phosphate buffer partition coefficient, log D of the compound by shake-flask method. It is filed as physicochemical.
Data set [3] is described as follows: Bioavailability in ip dosed rat. Format: ADME, organism-based. Particulars: in vivo.
The subject of data set [4] is Rattus norvegicus. Briefly: AUC (0 to infinity) in iv dosed rat. As to conditions: in vivo. Details: route intravenous, time infinity. Format: ADME, organism-based, Plasma.
A short description of data set [5]: Clearance in iv dosed rat. It is filed as ADME, organism-based. Particulars: in vivo.
Data set [6] relates to Rattus norvegicus. The data set is described as follows: AUC (0 to t) in iv dosed rat. It is filed as ADME, organism-based, Plasma. Particulars: in vivo.
For a further data set, the system named is Plasma. The data set is described as follows: Initial plasma concentration in rat. Format: ADME.
The nature of data set [7]: Volume of distribution at steady state in iv dosed rat. It is filed as ADME, organism-based. As to conditions: in vivo, read-out: Vdss.
Data set [8] can be described thus: Oral bioavailability in rat. It is filed as ADME, organism-based. As to conditions: in vivo.
Data set [9] can be described thus: Half life in iv dosed rat. It is filed as ADME, organism-based. Particulars: in vivo.
The nature of data set [10]: Mean residence time in rat. It is filed as ADME, organism-based. Particulars: in vivo.

As to `N[C@@H](CCCCB(O)O)C(=O)O`, the IC50 (commonly the midpoint of a concentration-inhibition curve) in [1] was 2.15 µM; on Arginase-1, 1.47 µM.
With `NC(CCCCB(O)O)(C(=O)O)C1CCN(C(=O)Nc2ccc(Cl)cc2)CC1` (racemic), the figures for the IC50 (in data set [1]; at Arginase-1) were 1.1 µM and 0.72 µM, respectively. Moreover, the logD (usually the decadic logarithm of the distribution of all forms, ionised or not, between an organic phase and buffer at a given pH) in data set [2] was found to be 0.5. For the same compound, in [3], the bioavailability (in general, dose-corrected exposure relative to a reference, in per cent) is less than 5%.
Take `NC(CCCCB(O)O)(C(=O)O)C1CCN(C(=S)NCc2ccc(Cl)cc2)CC1` (racemic): the IC50 in [1] came to 1.12 µM; at Arginase-1 it was 0.33 µM. The bioavailability in data set [3] is less than 5%.
In the same order, the values of `NC(CCCCB(O)O)(C(=O)O)C1CC2CCC(C1)N2` (racemic) are 0.085 µM, 0.08 µM and less than 5%.
For `NC(CCCCB(O)O)(C(=O)O)C1CC2CCC(C1)N2Cc1ccccc1` (racemic), the figures for the IC50 (in data set [1]; at Arginase-1) were 0.047 µM and 0.024 µM, respectively. In addition, the bioavailability in data set [3] is less than 5%.
Turning to `NC(CCCCB(O)O)(C(=O)O)C1CC2CCC(C1)N2Cc1ccc(Cl)cc1` (racemic), the IC50 in data set [1] was 0.03 µM; at Arginase-1 it was 0.017 µM. In data set [3], this compound had a bioavailability of less than 5%.
Take `NC(CCCCB(O)O)(C(=O)O)C1CC2CCC(C1)N2Cc1ccc(Cl)c(Cl)c1` (racemic): the AUC with Rattus norvegicus [4] came to 0.994 kg·h/L. The clearance (in general, a measure of how efficiently the substance is removed, as volume per time) in data set [5] came to 1.01 L/h/kg. Moreover, the IC50 in data set [1] worked out at 0.023 µM; on Arginase-1, 0.021 µM. The compound further gave an AUCt in the data set on Rattus norvegicus [6] of 0.951 kg·h/L. Further, the logD in data set [2] worked out at 2.4. The compound further returned a C0 in the data set with Plasma of 4.77 µg/mL. Besides, the Vd in data set [7] was found to be 0.918 L/kg. For the same compound, the bioavailability in [3] was greater than 50%; in data set [8], 0.25%. Moreover, in data set [9], the half-life (usually the time in which the quantity being followed falls by half) is 3.12 h. Also, the MRT (in general, the average time that molecules of a dose stay in the body) in data set [10] was 0.912 h.
`NC(CCCCB(O)O)(C(=O)O)C1CC2CCC(C1)N2Cc1ccc(F)c(F)c1` (racemic): the concentration for half-maximal inhibition (IC50) in data set [1] came out at 0.033 µM; on Arginase-1, 0.022 µM. Besides, the bioavailability in data set [3] is less than 5%.
Regarding `NC(CCCCB(O)O)(C(=O)O)C1CCNCC1` (racemic), the IC50 came out at 0.64 µM in data set [1] and 0.38 µM on Arginase-1. In addition, in [2], the pH-dependent lipophilicity (logD) was -2.8. Besides, the bioavailability in [3] is less than 5%.
In the same order, the values of `CC(C)CCN1CCC(C(N)(CCCCB(O)O)C(=O)O)CC1` (racemic) are 0.23 µM, 0.18 µM, -1.1 and less than 5%.
In the case of `NC(CCCCB(O)O)(C(=O)O)C1CCN(Cc2ccccc2)CC1` (racemic), the IC50 was determined as 0.23 µM in data set [1] and 0.2 µM at Arginase-1. Also, the logD in [2] is -0.4. Also, the bioavailability in data set [3] is less than 5%.
Regarding `NC(CCCCB(O)O)(C(=O)O)C1CCN(Cc2ccc(Cl)cc2)CC1` (racemic), the values for the IC50 (in [1]; on Arginase-1) were 0.24 µM and 0.19 µM, respectively. For the same compound, the logD in data set [2] was determined as 0.3. The bioavailability in data set [3] was less than 5%.
Take `NC(CCCCB(O)O)(C(=O)O)C1CCN(Cc2ccc(Cl)c(Cl)c2)CC1` (racemic): the AUC in the data set on Rattus norvegicus [4] turned out to be 2.12 kg·h/L. Besides, in [5], the clearance stood at 0.472 L/h/kg. Further, the concentration for half-maximal inhibition (IC50) in data set [1] was found to be 0.29 µM; on Arginase-1, 0.2 µM. In the data set with Rattus norvegicus [6], this compound showed an AUCt of 2.05 kg·h/L. Besides, the log distribution coefficient (logD) in [2] amounted to 1.5. In the data set with Plasma, the C0 was found to be 4.72 µg/mL. The Vd in data set [7] came out at 1.51 L/kg. Moreover, the values for the bioavailability in [3] and in [8] were greater than 50% and 4.8%, respectively. The half-life in data set [9] is 7.83 h. In data set [10], this compound gave an MRT of 2.14 h.
Take `NC(CCCCB(O)O)(C(=O)O)C1CCN(CCc2ccc(Cl)cc2Cl)CC1` (racemic): the half-inhibitory concentration (IC50) in [1] was 0.33 µM; on Arginase-1, 0.21 µM. In data set [3], this compound came in with a bioavailability of less than 5%.
Consider `NC(CCCCB(O)O)(C(=O)O)C1CCN(CCCc2ccc(Cl)cc2Cl)CC1` (racemic), for which the results for the half-inhibitory concentration (IC50) (in [1]; at Arginase-1) were 0.05 µM and 0.1 µM, respectively. Further, the logD in [2] turned out to be 1.2. The compound further came in with a bioavailability in data set [3] of less than 5%.
For `NC(CCCCB(O)O)(C(=O)O)C1CCN(CCCc2ccc(C(F)(F)F)cc2)CC1` (racemic), the IC50 is 0.07 µM in data set [1] and 0.12 µM at Arginase-1. In data set [3], this compound displayed a bioavailability of less than 5%.
For `Cc1ccc(S(=O)(=O)N2CCC(C(N)(CCCCB(O)O)C(=O)O)CC2)cc1` (racemic), the IC50 in data set [1] came to 4.65 µM; at Arginase-1, 6.65 µM. In data set [3], this compound registered a bioavailability of less than 5%.

For the origin of these results see ChEMBL document CHEMBL2417426, “Synthesis of quaternary α-amino acid-based arginase inhibitors via the Ugi reaction” (Bioorg Med Chem Lett, 2013).
